From ChEMBL document CHEMBL4033691, “Discovery and structure-guided fragment-linking of 4-(2,3-dichlorobenzoyl)-1-methyl-pyrrole-2-carboxamide as a pyruvate kinase M2 activator” (Bioorg Med Chem, 2017)
Calls of active or inactive are those of the source. No cut-off for these calls is given here.

Assays:
[1] = target: T1, Pyruvate kinase PKM (Homo sapiens, UniProt P14618); test: Activation of full length recombinant human N-terminal His6-tagged PKM2 expressed in Escherichia coli BL21(DE3) at 10 ug/ml using PEP as substrate preincubated for 5 mins followed by substrate addition measured after 90 mins in presence of ADP by Kinase-Glo luminescence assay relative to control
Target sequence in this assay (P14618 2-531 limits assumed): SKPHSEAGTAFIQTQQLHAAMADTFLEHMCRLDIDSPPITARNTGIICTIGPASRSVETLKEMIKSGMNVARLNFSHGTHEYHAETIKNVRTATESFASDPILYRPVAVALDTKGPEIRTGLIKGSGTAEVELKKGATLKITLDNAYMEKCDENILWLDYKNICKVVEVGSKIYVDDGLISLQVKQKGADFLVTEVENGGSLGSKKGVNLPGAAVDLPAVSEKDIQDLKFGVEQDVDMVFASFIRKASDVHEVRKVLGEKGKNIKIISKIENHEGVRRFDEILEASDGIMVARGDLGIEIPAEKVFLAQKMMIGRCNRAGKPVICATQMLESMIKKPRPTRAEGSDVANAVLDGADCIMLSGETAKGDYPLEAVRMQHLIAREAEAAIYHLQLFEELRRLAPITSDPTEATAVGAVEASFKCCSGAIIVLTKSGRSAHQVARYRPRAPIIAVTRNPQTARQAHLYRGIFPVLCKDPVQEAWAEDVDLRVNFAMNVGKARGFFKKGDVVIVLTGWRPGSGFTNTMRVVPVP

[2] = Stability of the compound; format: physicochemical
[3] = test system: A549; test: Growth inhibition of human A549 cells after 72 hrs in presence of serine by CellTiter-Glo luminescent assay; format: functional, cell-based
[4] = target: T1, Pyruvate kinase PKM; test: Activation of PKM2 in human A549 cells using PEP as substrate preincubated for 1 hr followed by substrate addition measured after 1 hr in presence of ADP by Kinase-Glo luminescence assay; format: cell-based
Target sequence in this assay (P14618 whole entry): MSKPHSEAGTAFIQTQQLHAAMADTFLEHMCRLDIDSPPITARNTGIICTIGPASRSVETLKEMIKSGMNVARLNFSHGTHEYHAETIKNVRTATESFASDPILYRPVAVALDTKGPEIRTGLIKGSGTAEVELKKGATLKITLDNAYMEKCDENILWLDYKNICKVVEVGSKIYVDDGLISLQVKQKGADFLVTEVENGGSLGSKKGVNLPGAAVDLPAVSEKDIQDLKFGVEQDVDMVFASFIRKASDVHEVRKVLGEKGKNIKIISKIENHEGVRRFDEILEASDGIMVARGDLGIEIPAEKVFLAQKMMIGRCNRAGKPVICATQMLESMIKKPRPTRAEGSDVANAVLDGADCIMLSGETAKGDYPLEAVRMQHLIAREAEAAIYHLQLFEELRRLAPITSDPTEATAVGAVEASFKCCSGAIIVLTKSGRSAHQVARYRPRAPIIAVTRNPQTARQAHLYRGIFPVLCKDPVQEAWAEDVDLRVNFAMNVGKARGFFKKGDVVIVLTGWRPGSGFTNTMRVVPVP

[5] = target: T1, Pyruvate kinase PKM; test: Activation of PKM2 in human A549 cells using PEP as substrate preincubated for 1 hr followed by substrate addition measured after 1 hr in presence of ADP by Kinase-Glo luminescence assay relative to control; format: cell-based
Target sequence in this assay (P14618 2-531 limits assumed): as the sequence (P14618 2-531 limits assumed) above

[6] = target: T1, Pyruvate kinase PKM; test: Activation of full length recombinant human N-terminal His6-tagged PKM2 expressed in Escherichia coli BL21(DE3) using PEP as substrate preincubated for 5 mins followed by substrate addition measured after 90 mins in presence of ADP by Kinase-Glo luminescence assay

SMILES	Emax [1]	Stability [2]	growth inhibition (GI) [3]	AC50 [4]	Activity [5]	AC200 [6]	AC50 [6]
Cn1cc(C(=O)c2cccc(Cl)c2Cl)cc1C(=O)NCNC(=O)c1cc(C(=O)c2cccc(Cl)c2Cl)cn1C	194%	Unstable					
Cn1cc(C(=O)c2cccc(Cl)c2Cl)cc1C(=O)NCCNC(=O)c1cc(C(=O)c2cccc(Cl)c2Cl)cn1C	184%		inactive	188 nM	598%		
Cn1cc(C(=O)c2cccc(Cl)c2Cl)cc1C(N)=O	198%			> 100000 nM		26 µM	
O=S(=O)(c1ccc2c(c1)OCCO2)N1CCN(S(=O)(=O)c2c(F)cccc2F)CC1	181%						150 nM
